Data as given in patent US6713266B1 (Isodiagnostika Inc., priority 1998, dated 2004).
Where “and” joins values, the source holds several entries; their conditions need not be identical. Equal values may be shown once.

How the values were obtained:
[1] = system: Mouse polyclonal sera (CSA-DVS-KLH immunogen); experiment: Inhibition ELISA, CSA-DVS-HSA coated plate, mouse polyclonal sera; assay type: binding
Procedure: (§1) Inhibition ELISA Protocol:
(§2) 1. Use Falcon Pro-bind immunoplates.
(§3) 2. Dilute coating antigen to 1 μg/mL in carbonate-bicarbonate buffer. Add 100 μL per well and incubate overnight at 4° C.
(§4) 3. On the same day prepare inhibiting antigen tubes. Aliquot antibodies into glass test tubes. Prepare appropriate antigen concentration in ethanol and add to aliquoted antibody at 10 μL ethanol solution/250 μL antibody. Vortex tubes and incubate overnight at 4° C.
(§5) 4. Shake out wells and wash 3× with 200 μL PBS/0.05% TWEEN™ (polyoxyethylene-sorbitol) (v/v) per well.
(§6) 5. Add 200 μL blocking buffer per well (PBS/2% BSA (w/v)). Incubate 60 min at room temperature.
(§7) 7. Transfer contents of inhibition tubes to antigen-coated plate, 100 μL per well. Incubate 60 min at 37° C.
(§8) 9. […] Add 100 μL per well and incubate at 37° C. for 60 min.
(§9) 11. […] Add 100 μL per well and incubate in the dark at room temperature. Absorbance can be read at 405 nm at approximately 15-min intervals.

MoAb CSA-2G9 = experiment: Inhibition ELISA to the CSA-DVS-HSA conjugate, MoAb; assay type: binding, mouse
Procedure: as §1, §2, §3, §4, §5, §6, §7
(§10) 9. Dilute alkaline phosphatase conjugated anti-mouse IgG (Pierce cat#31322) in PBS/0.1% TWEEN™ (polyoxyethylene-sorbitol) (v/v) to 1:5000 concentration. Add 100 μL per well and incubate at 37° C. for 60 min.
as §9

MoAb CSA-1H6 = experiment: as above; assay type: binding, mouse
Procedure: as §1, §2, §3, §4, §5, §6, §7, §10, §9

[2] = system: Mouse polyclonal sera (AM19-9-DVS-KLH immunogen); experiment: Inhibition ELISA, AM19-9-DVS-HSA coated plates, mouse polyclonal sera; assay type: binding
Procedure: as §1, §2, §3, §4, §5, §6, §7, §8, §9

[3] = system: Rabbit polyclonal sera (AM19-1-DVS-KLH (1) immunogen); experiment: Inhibition ELISA, AM19-1-DVS (1) HSA coated plate, rabbit polyclonal sera; assay type: binding
Procedure: as §1, §2, §3, §4, §5, §6, §7, §8, §9
The AM19-1-DVS (1) conjugate was also used to immunize rabbits.

[4] = system: Mouse polyclonal sera (AM19-1-DVS (2) - KLH immunogen); experiment: Inhibition ELISA, AM19-1-DVS (2) HSA coated plate, mouse polyclonal sera; assay type: binding
Procedure: as §1, §2, §3, §4, §5, §6, §7, §8, §9

[5] = system: Mouse polyclonal sera (AM19-1-DVS (1) - KLH immunogen); experiment: Inhibition ELISA, AM19-1-DVS (1) HSA coated plate, mouse polyclonal sera; assay type: binding
Procedure: as §1, §2, §3, §4, §5, §6, §7, §8, §9

MoAb AM19-1-7E12-2 = experiment: Inhibition ELISA with AM19-1-DVS (1) coated ELISA plates, MoAb; assay type: binding, mouse; details: AM19-1-7F12-2
Procedure: as §1, §2, §3, §4, §5, §6, §7, §8, §9

MoAb AM19-1-7E12-1 = experiment: as above; assay type: binding, mouse; details: AM19-1-7E12-1 TCS
Procedure: as §1, §2, §3, §4, §5, §6, §7, §8, §9

[6] = system: Mouse polyclonal sera (AM9-9-DVS-KLH immunogen); experiment: Inhibition ELISA, AM19-9-DVS-HSA coated plate, mouse polyclonal sera; assay type: binding
Procedure: as §1, §2, §3, §4, §5, §6, §7, §8, §9

MoAb AM1-7F5 = experiment: Inhibition ELISA to the CSA-DVS-HSA conjugate, MoAb; assay type: binding, mouse
Procedure: as §1, §2, §3, §4, §5, §6, §7, §8, §9

MoAb AM1-2E10 = experiment: as above; assay type: binding, mouse
Procedure: as §1, §2, §3, §4, §5, §6, §7, §8, §9

[7] = system: Mouse polyclonal sera (AM1-DVS-KLH immunogen); experiment: Inhibition ELISA to the CSA-DVS-HSA conjugate, mouse polyclonal sera; assay type: binding
Procedure: as §1, §2, §3, §4, §5, §6, §7, §8, §9

FK-DVS-KLH: FK-DVS-KLH conjugate used as inhibitor
Percent Inhibition ([1]; Mouse 1, inhibiting AG conc 0.156 μg/100 μL): 0% | Percent Inhibition ([1]; Mouse 1, inhibiting AG conc 0.313 μg/100 μL): 0% | Percent Inhibition ([1]; Mouse 1, inhibiting AG conc 1.25 μg/100 μL): 0% | Percent Inhibition ([1]; Mouse 1, inhibiting AG conc 5 μg/100 μL): 0% | Percent Inhibition ([1]; Mouse 1, inhibiting AG conc 10 μg/100 μL): 0% | Percent Inhibition ([1]; Mouse 2, inhibiting AG conc 0.156 μg/100 μL): 0% | Percent Inhibition ([1]; Mouse 2, inhibiting AG conc 0.313 μg/100 μL): 0% | Percent Inhibition ([1]; Mouse 2, inhibiting AG conc 1.25 μg/100 μL): 0% | Percent Inhibition ([1]; Mouse 2, inhibiting AG conc 5 μg/100 μL): 0% | Percent Inhibition ([1]; Mouse 2, inhibiting AG conc 10 μg/100 μL): 0%

C=CC[C@@H]1/C=C(\C)C[C@H](C)C[C@H](OC)[C@H]2O[C@@](O)(C(=O)C(=O)N3CCCC[C@H]3C(=O)O[C@H](/C(C)=C/[C@@H]3CC[C@@H](O)[C@H](OC)C3)[C@H](C)[C@@H](O)CC1=O)[C@H](C)C[C@@H]2OC [FK, tacrolimus]
Percent Inhibition of TCS (MoAb CSA-2G9; CSA-2G9 TCS, Table 16, CSA-DVS-HSA conjugate): 10.8% | Percent Inhibition of TCS (MoAb CSA-1H6; CSA-1H6 TCS, Table 16, CSA-DVS-HSA conjugate): 0% | Percent Inhibition ([2]; Mouse 5): 0% | Percent Inhibition ([2]; Mouse 6): 0% | Percent Inhibition [3]: 0% | Percent Inhibition ([4]; Mouse 3): 0% | Percent Inhibition ([4]; Mouse 4): 0% | Percent Inhibition ([5]; Mouse 1): 0% | Percent Inhibition ([5]; Mouse 2): 0% | Percent Inhibition of TCS (MoAb AM19-1-7E12-2): 3.2% | Percent Inhibition of TCS (MoAb AM19-1-7E12-1): 6.3% | Percent Inhibition ([6]; Mouse 1): 24.2% | Percent Inhibition ([6]; Mouse 2): 34.5% | Percent Inhibition ([1]; Mouse sera, Table 3, inhibition ELISA to the CSA-DVS-HSA conjugate): 31.9% | Percent Inhibition of TCS (MoAb AM1-7F5; AM1-7F51, TCS, Table 18, CSA-DVS-HSA coated plate): 26.0% | Percent Inhibition of TCS (MoAb AM1-2E10; AM1-2E10 TCS, Table 18, CSA-DVS-HSA coated plate): 0% | Percent Inhibition ([7]; Mouse 1): 3.5% | Percent Inhibition ([7]; Mouse 2): 13.0%

C/C=C/C[C@@H](C)[C@@H](O)[C@H]1C(=O)N[C@@H](CCC)C(=O)N(C)CC(=O)N(C)[C@@H](CC(C)C)C(=O)N[C@@H](C(C)C)C(=O)N(C)[C@@H](CC(C)C)C(=O)N[C@@H](C)C(=O)N[C@H](C)C(=O)N(C)[C@@H](CC(C)C)C(=O)N(C)[C@@H](CC(C)C)C(=O)N(C)[C@@H](C(C)C)C(=O)N1C [CSG, cyclosporine G]
Percent Inhibition (MoAb CSA-2G9; CSA-2G9, Table 24, CSA, CSG and CSA derivative inhibitors): 89.8% | Percent Inhibition (MoAb CSA-1H6; CSA-1H6, Table 24, CSA, CSG and CSA derivative inhibitors): 88.6% | Percent Inhibition (MoAb AM1-7F5; AM1-7F5, Table 24, CSA, CSG and CSA derivative inhibitors): 28.8% | Percent Inhibition (MoAb AM1-2E10; AM1-2E10, Table 24, CSA, CSG and CSA derivative inhibitors): 61% and 61.2%
